Results as given in paper PMC9329436, “Optimization of the 4-anilinoquin(az)oline scaffold as epidermal growth factor receptor (EGFR) inhibitors for chordoma utilizing a toxicology profiling assay platform” (Scientific Reports, 2022).
Where two headings read alike, the source gives them in different places.

Assays:
Format in all cases: biochemical
[1] = target: T1, 320 wild-type protein kinases (Homo sapiens, UniProt Q96KB5); details: PBK, singlicate
T1 sequence (Q96KB5 1-322): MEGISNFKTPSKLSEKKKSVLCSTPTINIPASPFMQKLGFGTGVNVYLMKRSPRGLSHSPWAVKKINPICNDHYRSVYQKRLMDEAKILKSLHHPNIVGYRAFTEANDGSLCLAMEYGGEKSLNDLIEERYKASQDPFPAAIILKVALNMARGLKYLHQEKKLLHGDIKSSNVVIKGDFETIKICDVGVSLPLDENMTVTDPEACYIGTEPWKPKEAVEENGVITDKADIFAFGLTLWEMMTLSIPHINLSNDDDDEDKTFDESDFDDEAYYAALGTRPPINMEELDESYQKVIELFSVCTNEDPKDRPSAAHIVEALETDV
Source text: (§1) Table S4. Profiling of two compounds at two concentrations against 320 wild-type protein kinases; singlicate measurement; Residual activities (% of control).

[2] = target: 320 wild-type protein kinases (Homo sapiens, UniProt Q13555); details: CAMK2G, singlicate
320 wild-type protein kinases (Homo sapiens, UniProt Q13555), sequence (Q13555 whole entry): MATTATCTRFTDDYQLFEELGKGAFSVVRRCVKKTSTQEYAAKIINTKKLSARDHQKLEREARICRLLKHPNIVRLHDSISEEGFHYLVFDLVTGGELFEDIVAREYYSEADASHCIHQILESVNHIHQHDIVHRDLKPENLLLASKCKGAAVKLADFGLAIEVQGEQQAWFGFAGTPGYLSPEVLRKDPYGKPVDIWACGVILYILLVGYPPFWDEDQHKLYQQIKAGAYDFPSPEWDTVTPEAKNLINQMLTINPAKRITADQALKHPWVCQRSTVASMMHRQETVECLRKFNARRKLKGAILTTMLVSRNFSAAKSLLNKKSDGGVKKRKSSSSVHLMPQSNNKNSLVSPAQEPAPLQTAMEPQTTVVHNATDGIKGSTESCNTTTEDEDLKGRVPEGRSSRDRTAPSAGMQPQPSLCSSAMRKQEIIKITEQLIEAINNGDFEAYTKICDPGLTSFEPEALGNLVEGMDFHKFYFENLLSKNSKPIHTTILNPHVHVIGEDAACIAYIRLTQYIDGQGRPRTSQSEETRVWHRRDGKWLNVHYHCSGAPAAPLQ
Source text: as §1

[3] = target: 320 wild-type protein kinases (Homo sapiens, UniProt Q9BYT3); details: kinase STK33, singlicate
320 wild-type protein kinases (Homo sapiens, UniProt Q9BYT3), sequence (Q9BYT3 whole entry): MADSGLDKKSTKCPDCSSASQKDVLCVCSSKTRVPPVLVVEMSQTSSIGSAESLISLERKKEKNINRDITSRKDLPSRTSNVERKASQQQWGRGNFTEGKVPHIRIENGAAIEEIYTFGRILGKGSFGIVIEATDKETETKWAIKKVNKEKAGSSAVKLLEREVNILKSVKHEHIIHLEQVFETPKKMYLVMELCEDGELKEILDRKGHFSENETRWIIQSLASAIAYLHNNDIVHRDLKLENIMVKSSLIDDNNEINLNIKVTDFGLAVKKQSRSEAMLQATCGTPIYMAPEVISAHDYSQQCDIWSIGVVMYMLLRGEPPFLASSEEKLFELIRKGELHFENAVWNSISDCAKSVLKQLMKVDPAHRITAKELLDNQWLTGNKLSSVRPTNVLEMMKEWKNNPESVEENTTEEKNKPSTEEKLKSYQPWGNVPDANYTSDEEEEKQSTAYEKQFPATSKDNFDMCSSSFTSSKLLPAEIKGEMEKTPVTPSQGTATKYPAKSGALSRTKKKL
Source text: as §1

[4] = target: 320 wild-type protein kinases (Homo sapiens, UniProt P53350); details: singlicate
Source text: as §1

[5] = target: 320 wild-type protein kinases (Homo sapiens, UniProt Q13177); details: singlicate
320 wild-type protein kinases (Homo sapiens, UniProt Q13177), sequence (Q13177 whole entry): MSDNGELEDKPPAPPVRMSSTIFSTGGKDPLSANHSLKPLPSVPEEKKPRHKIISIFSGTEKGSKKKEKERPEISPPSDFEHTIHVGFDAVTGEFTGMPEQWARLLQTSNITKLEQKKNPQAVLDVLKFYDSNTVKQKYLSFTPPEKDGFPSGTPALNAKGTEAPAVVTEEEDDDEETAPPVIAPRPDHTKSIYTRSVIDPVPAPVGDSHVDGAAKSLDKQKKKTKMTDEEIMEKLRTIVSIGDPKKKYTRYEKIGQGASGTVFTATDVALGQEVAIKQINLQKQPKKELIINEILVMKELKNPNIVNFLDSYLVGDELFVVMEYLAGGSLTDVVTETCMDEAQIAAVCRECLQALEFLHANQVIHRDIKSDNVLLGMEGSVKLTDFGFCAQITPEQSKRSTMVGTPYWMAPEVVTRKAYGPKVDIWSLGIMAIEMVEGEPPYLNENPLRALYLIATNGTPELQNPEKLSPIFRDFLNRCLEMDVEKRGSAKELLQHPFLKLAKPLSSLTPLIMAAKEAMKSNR
Source text: as §1

[6] = target: 320 wild-type protein kinases (Homo sapiens, UniProt Q9H0K1); details: kinase SIK2, singlicate
320 wild-type protein kinases (Homo sapiens, UniProt Q9H0K1), sequence (Q9H0K1 whole entry): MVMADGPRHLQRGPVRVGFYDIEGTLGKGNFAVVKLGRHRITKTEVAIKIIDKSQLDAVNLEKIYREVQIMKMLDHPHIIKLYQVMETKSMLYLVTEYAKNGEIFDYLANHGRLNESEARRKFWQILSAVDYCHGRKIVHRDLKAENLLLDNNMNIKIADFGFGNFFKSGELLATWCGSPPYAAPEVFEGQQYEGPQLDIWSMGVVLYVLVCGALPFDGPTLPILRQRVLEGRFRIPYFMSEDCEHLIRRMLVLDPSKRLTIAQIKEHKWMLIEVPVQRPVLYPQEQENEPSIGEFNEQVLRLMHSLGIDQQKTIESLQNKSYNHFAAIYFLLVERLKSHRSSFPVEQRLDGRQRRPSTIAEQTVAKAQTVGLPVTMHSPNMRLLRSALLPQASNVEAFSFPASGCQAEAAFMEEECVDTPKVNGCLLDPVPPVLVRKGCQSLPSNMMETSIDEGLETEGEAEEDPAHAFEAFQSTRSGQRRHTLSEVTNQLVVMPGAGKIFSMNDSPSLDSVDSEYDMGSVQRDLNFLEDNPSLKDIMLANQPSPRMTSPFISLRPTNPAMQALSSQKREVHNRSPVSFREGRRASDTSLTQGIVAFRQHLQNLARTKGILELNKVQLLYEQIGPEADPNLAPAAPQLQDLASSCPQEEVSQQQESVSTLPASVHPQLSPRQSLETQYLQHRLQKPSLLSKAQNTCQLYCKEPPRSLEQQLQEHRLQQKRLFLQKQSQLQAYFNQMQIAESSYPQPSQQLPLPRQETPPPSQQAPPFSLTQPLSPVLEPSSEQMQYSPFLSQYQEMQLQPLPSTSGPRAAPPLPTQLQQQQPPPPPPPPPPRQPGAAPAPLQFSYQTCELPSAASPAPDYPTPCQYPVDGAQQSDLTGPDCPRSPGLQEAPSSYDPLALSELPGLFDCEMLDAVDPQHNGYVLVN
Source text: as §1

[7] = target: 320 wild-type protein kinases (Homo sapiens, UniProt P08631); details: HCK, singlicate
320 wild-type protein kinases (Homo sapiens, UniProt P08631), sequence (P08631 whole entry): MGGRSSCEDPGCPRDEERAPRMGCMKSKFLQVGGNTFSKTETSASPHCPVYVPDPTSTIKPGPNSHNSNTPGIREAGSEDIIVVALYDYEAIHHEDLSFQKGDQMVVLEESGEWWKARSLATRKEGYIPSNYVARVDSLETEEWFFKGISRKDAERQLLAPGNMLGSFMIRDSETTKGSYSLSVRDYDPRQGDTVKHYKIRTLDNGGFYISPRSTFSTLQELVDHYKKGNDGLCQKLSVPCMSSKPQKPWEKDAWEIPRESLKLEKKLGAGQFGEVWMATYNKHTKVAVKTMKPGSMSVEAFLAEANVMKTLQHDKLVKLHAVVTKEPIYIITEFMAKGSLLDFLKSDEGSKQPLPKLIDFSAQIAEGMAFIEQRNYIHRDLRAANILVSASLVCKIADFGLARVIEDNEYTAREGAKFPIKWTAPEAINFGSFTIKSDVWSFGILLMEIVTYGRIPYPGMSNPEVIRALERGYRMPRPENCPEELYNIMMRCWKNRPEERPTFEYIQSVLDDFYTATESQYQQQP
Source text: as §1

[8] = target: 320 wild-type protein kinases (Homo sapiens, UniProt P05771); details: singlicate
320 wild-type protein kinases (Homo sapiens, UniProt P05771), sequence (P05771 whole entry): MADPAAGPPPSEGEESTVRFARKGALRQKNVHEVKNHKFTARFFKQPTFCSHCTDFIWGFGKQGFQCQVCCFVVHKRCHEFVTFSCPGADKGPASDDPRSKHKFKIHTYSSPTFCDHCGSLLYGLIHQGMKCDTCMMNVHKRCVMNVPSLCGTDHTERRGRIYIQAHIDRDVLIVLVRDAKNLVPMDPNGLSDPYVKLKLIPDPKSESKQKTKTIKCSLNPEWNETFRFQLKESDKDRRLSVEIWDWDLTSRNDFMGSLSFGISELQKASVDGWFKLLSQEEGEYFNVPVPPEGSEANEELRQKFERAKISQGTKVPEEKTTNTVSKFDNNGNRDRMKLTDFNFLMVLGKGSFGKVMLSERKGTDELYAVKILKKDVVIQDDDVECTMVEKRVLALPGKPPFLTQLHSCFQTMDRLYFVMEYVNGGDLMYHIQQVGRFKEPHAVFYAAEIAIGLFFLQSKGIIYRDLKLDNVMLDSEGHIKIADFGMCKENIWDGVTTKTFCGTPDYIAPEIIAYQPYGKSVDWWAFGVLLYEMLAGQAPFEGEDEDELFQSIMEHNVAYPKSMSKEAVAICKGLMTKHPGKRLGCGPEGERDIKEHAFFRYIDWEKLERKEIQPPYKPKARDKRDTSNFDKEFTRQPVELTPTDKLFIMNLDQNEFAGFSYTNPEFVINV
Source text: as §1

[9] = target: 320 wild-type protein kinases (Homo sapiens, UniProt Q5TCX8); details: singlicate
Source text: as §1

[10] = target: T2, 320 wild-type protein kinases (Homo sapiens, UniProt Q9Y2U5); details: singlicate
T2 sequence (Q9Y2U5 1-619): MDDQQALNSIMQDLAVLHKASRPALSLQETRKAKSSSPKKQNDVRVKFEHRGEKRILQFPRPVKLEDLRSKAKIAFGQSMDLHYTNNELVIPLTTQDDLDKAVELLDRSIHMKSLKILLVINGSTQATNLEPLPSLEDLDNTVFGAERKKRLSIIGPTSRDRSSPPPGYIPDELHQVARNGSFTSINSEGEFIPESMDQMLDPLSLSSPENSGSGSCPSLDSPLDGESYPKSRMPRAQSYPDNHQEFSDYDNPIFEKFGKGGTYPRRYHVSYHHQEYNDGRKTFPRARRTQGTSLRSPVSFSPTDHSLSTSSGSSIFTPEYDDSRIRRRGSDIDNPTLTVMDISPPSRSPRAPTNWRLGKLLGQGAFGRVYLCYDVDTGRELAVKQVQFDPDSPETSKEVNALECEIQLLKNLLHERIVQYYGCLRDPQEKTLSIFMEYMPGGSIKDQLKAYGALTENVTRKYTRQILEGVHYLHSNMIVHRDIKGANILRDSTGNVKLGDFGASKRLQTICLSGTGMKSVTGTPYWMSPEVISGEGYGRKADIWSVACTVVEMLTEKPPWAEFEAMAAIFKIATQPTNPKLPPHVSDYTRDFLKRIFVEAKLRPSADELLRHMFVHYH
Source text: as §1

[11] = target: T3, 320 wild-type protein kinases (Homo sapiens, UniProt Q05513); details: PKC-zeta, singlicate
T3 sequence (Q05513 1-592): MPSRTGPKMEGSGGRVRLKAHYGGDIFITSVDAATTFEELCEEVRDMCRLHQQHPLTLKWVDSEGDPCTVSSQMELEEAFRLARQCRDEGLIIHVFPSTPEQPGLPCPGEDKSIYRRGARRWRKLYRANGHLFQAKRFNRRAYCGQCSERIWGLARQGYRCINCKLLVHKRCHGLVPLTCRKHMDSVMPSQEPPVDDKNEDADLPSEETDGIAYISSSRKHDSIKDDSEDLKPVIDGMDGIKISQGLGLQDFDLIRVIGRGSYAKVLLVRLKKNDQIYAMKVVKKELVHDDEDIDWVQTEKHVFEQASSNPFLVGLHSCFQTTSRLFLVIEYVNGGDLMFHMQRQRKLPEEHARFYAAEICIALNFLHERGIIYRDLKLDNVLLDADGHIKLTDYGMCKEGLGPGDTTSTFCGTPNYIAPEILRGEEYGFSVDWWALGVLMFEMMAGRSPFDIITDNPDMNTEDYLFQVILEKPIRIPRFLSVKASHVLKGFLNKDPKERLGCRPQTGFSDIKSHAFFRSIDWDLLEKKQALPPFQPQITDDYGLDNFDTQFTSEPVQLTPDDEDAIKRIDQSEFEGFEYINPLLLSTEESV
Source text: as §1

[12] = target: 320 wild-type protein kinases (Homo sapiens, UniProt Q02750); details: singlicate
320 wild-type protein kinases (Homo sapiens, UniProt Q02750), sequence (Q02750 whole entry): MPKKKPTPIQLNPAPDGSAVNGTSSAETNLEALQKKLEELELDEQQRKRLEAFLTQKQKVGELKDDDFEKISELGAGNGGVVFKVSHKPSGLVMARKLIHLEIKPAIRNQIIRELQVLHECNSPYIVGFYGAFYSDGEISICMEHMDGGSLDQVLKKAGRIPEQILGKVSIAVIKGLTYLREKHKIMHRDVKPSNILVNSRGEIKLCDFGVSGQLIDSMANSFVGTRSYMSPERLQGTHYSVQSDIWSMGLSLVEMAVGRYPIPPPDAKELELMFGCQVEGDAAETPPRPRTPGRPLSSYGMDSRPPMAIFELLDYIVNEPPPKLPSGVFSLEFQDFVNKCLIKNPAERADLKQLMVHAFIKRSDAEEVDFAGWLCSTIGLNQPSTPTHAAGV
Source text: as §1

[13] = target: 320 wild-type protein kinases (Homo sapiens, UniProt P78368); details: singlicate
320 wild-type protein kinases (Homo sapiens, UniProt P78368), sequence (P78368 whole entry): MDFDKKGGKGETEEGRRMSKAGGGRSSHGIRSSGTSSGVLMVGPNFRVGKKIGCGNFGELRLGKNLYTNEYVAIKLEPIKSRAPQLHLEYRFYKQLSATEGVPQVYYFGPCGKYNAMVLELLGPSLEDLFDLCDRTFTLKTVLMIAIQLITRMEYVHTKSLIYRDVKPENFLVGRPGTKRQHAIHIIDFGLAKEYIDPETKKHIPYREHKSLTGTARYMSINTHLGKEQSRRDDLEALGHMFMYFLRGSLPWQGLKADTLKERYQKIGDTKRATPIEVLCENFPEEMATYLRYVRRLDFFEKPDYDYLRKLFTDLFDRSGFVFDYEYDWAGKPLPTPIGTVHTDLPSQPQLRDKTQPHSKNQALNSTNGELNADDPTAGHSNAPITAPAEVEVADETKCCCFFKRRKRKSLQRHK
Source text: as §1

[14] = target: 320 wild-type protein kinases (Homo sapiens, UniProt Q00534); details: singlicate
Source text: as §1

[15] = target: 320 wild-type protein kinases (Homo sapiens, UniProt Q9HC98); details: singlicate
320 wild-type protein kinases (Homo sapiens, UniProt Q9HC98), sequence (Q9HC98 whole entry): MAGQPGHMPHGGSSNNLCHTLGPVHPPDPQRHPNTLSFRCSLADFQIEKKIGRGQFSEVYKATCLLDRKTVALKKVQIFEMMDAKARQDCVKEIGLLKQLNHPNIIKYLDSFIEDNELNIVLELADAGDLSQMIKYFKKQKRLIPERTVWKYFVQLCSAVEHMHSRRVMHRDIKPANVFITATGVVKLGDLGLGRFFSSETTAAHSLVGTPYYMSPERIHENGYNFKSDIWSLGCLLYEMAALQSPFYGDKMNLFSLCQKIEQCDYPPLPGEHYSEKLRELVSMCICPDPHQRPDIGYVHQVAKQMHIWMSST
Source text: as §1

SMILES | Residual activity ([1]; 1.0E-06 M) | Residual activity ([1]; 1.0E-07 M) | Residual activity ([2]; 1.0E-06 M) | Residual activity ([2]; 1.0E-07 M) | Residual activity, STK33 ([3]; assay conc. 1.0E-06 M) | Residual activity, STK33 ([3]; assay conc. 1.0E-07 M) | Residual activity ([4]; PLK1, 1.0E-06 M) | Residual activity ([4]; PLK1, 1.0E-07 M) | Residual activity ([5]; PAK2, 1.0E-06 M) | Residual activity ([5]; PAK2, 1.0E-07 M) | Residual activity, SIK2 ([6]; assay conc. 1.0E-06 M) | Residual activity, SIK2 ([6]; assay conc. 1.0E-07 M) | Residual activity ([7]; 1.0E-06 M) | Residual activity ([7]; 1.0E-07 M) | Residual activity ([8]; PKC-beta1, 1.0E-06 M) | Residual activity ([8]; PKC-beta1, 1.0E-07 M) | Residual activity ([9]; MLK4, 1.0E-06 M) | Residual activity ([9]; MLK4, 1.0E-07 M) | Residual activity ([10]; MEKK2, 1.0E-06 M) | Residual activity ([10]; MEKK2, 1.0E-07 M) | also measured
C#Cc1cc(Nc2ncnc3cc(OC)c(OC)cc23)ccc1Cl [Compound 45] | 80 % of control | 91 % of control | 91 % of control | 116 % of control | 76 % of control | 100 % of control | 77 % of control | 91 % of control | 104 % of control | 101 % of control | 67 % of control | 97 % of control | 72 % of control | 102 % of control | 88 % of control | 95 % of control | 83 % of control | 85 % of control | 107 % of control | 120 % of control | Residual activity ([11]; 1.0E-06 M): 85 % of control; Residual activity ([11]; 1.0E-07 M): 73 % of control; Residual activity ([12]; MEK1, 1.0E-06 M): 109 % of control; Residual activity ([12]; MEK1, 1.0E-07 M): 105 % of control; Residual activity ([13]; CK1-gamma2, 1.0E-06 M): 109 % of control; Residual activity ([13]; CK1-gamma2, 1.0E-07 M): 111 % of control; Residual activity ([14]; CDK6/CycD1, 1.0E-06 M): 86 % of control; Residual activity ([14]; CDK6/CycD1, 1.0E-07 M): 96 % of control; Residual activity ([14]; CDK6/CycD3, 1.0E-06 M): 105 % of control; Residual activity ([14]; CDK6/CycD3, 1.0E-07 M): 95 % of control; Residual activity ([15]; NEK6, 1.0E-06 M): 92 % of control; Residual activity ([15]; NEK6, 1.0E-07 M): 90 % of control
C#Cc1cc(Nc2ncnc3cc(I)ccc23)ccc1Cl [Compound 41] | 110 % of control | 98 % of control | 93 % of control | 118 % of control | 89 % of control | 98 % of control | 98 % of control | 98 % of control | 102 % of control | 108 % of control | 83 % of control | 92 % of control | 90 % of control | 110 % of control | 96 % of control | 110 % of control | 85 % of control | 79 % of control | 93 % of control | 112 % of control | Residual activity ([11]; 1.0E-06 M): 76 % of control; Residual activity ([11]; 1.0E-07 M): 87 % of control; Residual activity ([12]; MEK1, 1.0E-06 M): 104 % of control; Residual activity ([12]; MEK1, 1.0E-07 M): 109 % of control; Residual activity ([13]; CK1-gamma2, 1.0E-06 M): 112 % of control; Residual activity ([13]; CK1-gamma2, 1.0E-07 M): 119 % of control; Residual activity ([14]; CDK6/CycD1, 1.0E-06 M): 98 % of control; Residual activity ([14]; CDK6/CycD1, 1.0E-07 M): 92 % of control; Residual activity ([14]; CDK6/CycD3, 1.0E-06 M): 103 % of control; Residual activity ([14]; CDK6/CycD3, 1.0E-07 M): 102 % of control; Residual activity ([15]; NEK6, 1.0E-06 M): 92 % of control; Residual activity ([15]; NEK6, 1.0E-07 M): 84 % of control
